Data from patent US7812015B2, “Prophylaxis and treatment of infectious diseases” (priority 2002, dated 2010).
Where two headings read alike, the source gives them in different places.

Experiments:
[1] = biological target: T1, acid sphingomyelinase (ASM) (Homo sapiens, UniProt P17405); experiment: Acid sphingomyelinase activity in lysates of Hela cells infected with rhinovirus strain 14 ([14C]sphingomyelin assay); assay type: cell-based; details: rhinovirus strain 14, MOI 25, preincubation with inhibitor
T1 construct: endogenous in cells; host or cells: HeLa cells infected with rhinovirus strain 14
T1 sequence (P17405 47-631): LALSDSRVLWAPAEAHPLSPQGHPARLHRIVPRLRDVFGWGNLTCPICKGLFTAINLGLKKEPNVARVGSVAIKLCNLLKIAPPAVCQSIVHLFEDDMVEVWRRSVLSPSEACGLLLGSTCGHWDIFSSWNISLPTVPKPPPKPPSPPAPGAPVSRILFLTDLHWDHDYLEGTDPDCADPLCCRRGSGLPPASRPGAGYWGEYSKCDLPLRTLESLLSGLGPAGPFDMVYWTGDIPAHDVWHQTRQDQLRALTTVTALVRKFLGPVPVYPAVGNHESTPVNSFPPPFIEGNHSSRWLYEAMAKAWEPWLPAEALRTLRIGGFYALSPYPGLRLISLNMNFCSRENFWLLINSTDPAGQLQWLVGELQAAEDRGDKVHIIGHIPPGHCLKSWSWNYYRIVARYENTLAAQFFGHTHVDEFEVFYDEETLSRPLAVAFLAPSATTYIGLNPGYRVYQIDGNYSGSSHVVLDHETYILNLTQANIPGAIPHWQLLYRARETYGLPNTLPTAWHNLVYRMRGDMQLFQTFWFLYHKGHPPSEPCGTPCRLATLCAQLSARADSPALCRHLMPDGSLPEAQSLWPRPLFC
Experimental: (§1) The cells were infected with rhinoviruses (strain 14, MOI 25), and the sphingomyelinase activity in cell lysates was measured. For this purpose, the cells were washed after the infection, taken up in 250 mM sodium acetate (pH 5.0), 1.3 mM EDTA and 0.05% NP40, disrupted by ultrasound treatment with a sonicator probe at low energy, and incubated with [^14C]sphingomyelin (0.5 μCi/sample, 54.5 mCi/mmol; NEN) for 30 min The in vitro enzyme assay was stopped by adding 800 μl of a 2:1 column mixture of CHCl3 and CH3OH (v/v) and 200 μl of H2O, and the liberation of [^14C]phosphorylcholine into the aqueous supernatant was measured by scintigraphy after organic extraction. […] Hela cells were again infected with rhinoviruses (strain 14) for this purpose. Ceramide was measured by a diacylglycerol (DAG) kinase assay (Grassme et al., Cell 91, 605-615, 1997). Ceramide was converted into [^32P]-ceramide by adding DAG kinase and [^32P]γATP. The phosphorylated ceramide was fractionated by thin layer chromatography and determined by scintigraphy. […] Infection of human epithelial cells by rhinoviruses was measured in flow cytometric analyses of the cytopathic effect of the viruses. […] 2.

ceramide = experiment: Ceramide liberation in rhinovirus-infected Hela cells (DAG kinase assay); assay type: cell-based, human; details: Hela cells infected with rhinovirus strain 14, preincubation
Source text: (§2) This was shown for Hela cells as example. […] Means±standard deviation for three experiments are shown. […] This is depicted in FIG. 2. […] Means±standard deviation of three experiments are depicted. […] 2. Infection with HIV

rhinovirus strain 14 = experiment: Infection of Hela epithelial cells with rhinovirus strain 14, cytotoxic effect by flow cytometry after FITC-annexin staining; assay type: cell-based, human; details: rhinovirus strain 14, 24 h, drug added in serum-free medium 30 min before infection
Source text: as §2

Hela epithelial cells = system: Hela epithelial cells
Experimental: as §1

[2] = system: rhinovirus strains (RV14, RV16); experiment: Infection of Hela epithelial cells with various rhinovirus strains, cytotoxic effect by FITC-annexin flow cytometry; assay type: cell-based, human; details: RV14 and RV16, 24 h, drug added in serum-free medium 30 min before infection
Source text: as §2

SMILES | activity of acid sphingomyelinase after preincubation of the cells [1] | liberation of ceramide after preincubation of the cells (ceramide) | inhibition of viral infection (cytotoxic effect of the virus) (rhinovirus strain 14) | cytotoxic effect of the drug itself on the cells (Hela epithelial cells; Hela cells) | inhibition of viral infection (cytotoxic effect of the viruses) [2] | cytotoxic effect of the drug itself on the cells (Hela epithelial cells)
CN(C)CCC=C1c2ccccc2CCc2ccccc21 [amitryptiline] | blocks the activity of acid sphingomyelinase | abolishes the liberation of ceramide | almost completely inhibits the viral infection | no cytotoxic effect | almost completely inhibit the viral infection | –
CN(C)CCCN1c2ccccc2CCc2ccccc21 [imipramine] | – | – | almost completely inhibits the viral infection | – | almost completely inhibit the viral infection | no cytotoxic effect
